# Test results: PMC4770715, “LIM kinase inhibitors disrupt mitotic microtubule organization and impair tumor cell proliferation” (Oncotarget, 2015)
# Columns and labels:
# Test in all cases: biochemical
# Set-up in all cases: KINOMEscan active-site competition binding, percent of control (100 = no competition)
# Conditions in all cases: competition binding, percent control
# [1] = target: T1, ABL1(T315I)-nonphosphorylated (Homo sapiens, UniProt P00519, T315I)
# T1 construct: nonphosphorylated
# [2] = target: ABL2 (Homo sapiens, UniProt P42684)
# [3] = target: ACVR1 (Homo sapiens, UniProt Q04771)
# [4] = target: ACVR2B (Homo sapiens, UniProt Q13705)
# [5] = target: T2, ARK5 (Homo sapiens, UniProt O60285)
# T2 construct: gene NUAK1
# [6] = target: AURKC (Homo sapiens, UniProt Q9UQB9)
# [7] = target: CASK (Homo sapiens, UniProt O14936)
# [8] = target: DAPK3 (Homo sapiens, UniProt O43293)
# [9] = target: DYRK1B (Homo sapiens, UniProt Q9Y463)
# [10] = target: ERBB2 (Homo sapiens, UniProt P04626)
# [11] = target: FGFR1 (Homo sapiens, UniProt P11362)
# [12] = target: HIPK1 (Homo sapiens, UniProt Q86Z02)
# [13] = target: HUNK (Homo sapiens, UniProt P57058)
# [14] = target: LRRK2(G2019S) (Homo sapiens, UniProt Q5S007, G2019S)
# [15] = target: T3, LZK (Homo sapiens, UniProt O43283)
# T3 construct: gene MAP3K13
# [16] = target: T4, MEK1 (Homo sapiens, UniProt Q02750)
# T4 construct: gene MAP2K1
# [17] = target: T5, MEK6 (Homo sapiens, UniProt P52564)
# T5 construct: gene MAP2K6
# [18] = target: MELK (Homo sapiens, UniProt Q14680)
# [19] = target: MYLK (Homo sapiens, UniProt Q15746)
# [20] = target: T6, PCTK3 (Homo sapiens, UniProt Q07002)
# T6 construct: gene CDK18
# [21] = target: PIP5K1A (Homo sapiens, UniProt Q99755)
# [22] = target: SBK1 (Homo sapiens, UniProt Q52WX2)
# [23] = target: T7, YSK4 (Homo sapiens, UniProt Q56UN5)
# T7 construct: gene MAP3K19
# HIPK1, sequence (Q86Z02 whole entry): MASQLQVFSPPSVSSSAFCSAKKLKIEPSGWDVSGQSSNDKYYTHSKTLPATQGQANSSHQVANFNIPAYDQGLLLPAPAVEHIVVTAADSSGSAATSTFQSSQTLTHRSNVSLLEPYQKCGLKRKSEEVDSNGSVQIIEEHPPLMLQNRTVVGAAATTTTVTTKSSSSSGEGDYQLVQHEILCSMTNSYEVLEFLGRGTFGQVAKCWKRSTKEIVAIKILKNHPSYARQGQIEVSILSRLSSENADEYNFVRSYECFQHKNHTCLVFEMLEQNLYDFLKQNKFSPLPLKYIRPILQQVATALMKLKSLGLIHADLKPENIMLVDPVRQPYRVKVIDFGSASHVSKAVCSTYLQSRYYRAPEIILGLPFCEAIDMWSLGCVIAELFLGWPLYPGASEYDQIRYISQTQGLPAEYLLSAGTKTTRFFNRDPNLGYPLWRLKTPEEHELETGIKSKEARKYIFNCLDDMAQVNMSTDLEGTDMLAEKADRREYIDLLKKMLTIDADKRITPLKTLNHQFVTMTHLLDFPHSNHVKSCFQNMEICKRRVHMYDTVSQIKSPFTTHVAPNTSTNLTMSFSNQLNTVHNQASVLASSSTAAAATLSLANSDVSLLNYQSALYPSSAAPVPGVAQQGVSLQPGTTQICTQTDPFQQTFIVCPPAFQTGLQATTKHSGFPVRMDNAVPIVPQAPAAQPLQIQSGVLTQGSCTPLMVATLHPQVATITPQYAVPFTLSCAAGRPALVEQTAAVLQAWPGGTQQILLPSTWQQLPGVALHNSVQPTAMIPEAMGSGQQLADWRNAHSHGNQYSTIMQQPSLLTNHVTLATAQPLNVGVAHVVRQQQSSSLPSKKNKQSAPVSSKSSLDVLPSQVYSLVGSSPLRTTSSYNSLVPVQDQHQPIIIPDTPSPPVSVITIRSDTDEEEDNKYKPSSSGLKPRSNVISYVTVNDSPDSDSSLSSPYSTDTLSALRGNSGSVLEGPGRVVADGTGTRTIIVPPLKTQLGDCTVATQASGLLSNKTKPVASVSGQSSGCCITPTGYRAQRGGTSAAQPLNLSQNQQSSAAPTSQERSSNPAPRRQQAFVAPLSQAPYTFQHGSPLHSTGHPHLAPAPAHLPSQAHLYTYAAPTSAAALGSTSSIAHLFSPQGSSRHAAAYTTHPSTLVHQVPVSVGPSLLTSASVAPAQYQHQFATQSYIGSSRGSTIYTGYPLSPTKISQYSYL
# T2 sequence (O60285 whole entry): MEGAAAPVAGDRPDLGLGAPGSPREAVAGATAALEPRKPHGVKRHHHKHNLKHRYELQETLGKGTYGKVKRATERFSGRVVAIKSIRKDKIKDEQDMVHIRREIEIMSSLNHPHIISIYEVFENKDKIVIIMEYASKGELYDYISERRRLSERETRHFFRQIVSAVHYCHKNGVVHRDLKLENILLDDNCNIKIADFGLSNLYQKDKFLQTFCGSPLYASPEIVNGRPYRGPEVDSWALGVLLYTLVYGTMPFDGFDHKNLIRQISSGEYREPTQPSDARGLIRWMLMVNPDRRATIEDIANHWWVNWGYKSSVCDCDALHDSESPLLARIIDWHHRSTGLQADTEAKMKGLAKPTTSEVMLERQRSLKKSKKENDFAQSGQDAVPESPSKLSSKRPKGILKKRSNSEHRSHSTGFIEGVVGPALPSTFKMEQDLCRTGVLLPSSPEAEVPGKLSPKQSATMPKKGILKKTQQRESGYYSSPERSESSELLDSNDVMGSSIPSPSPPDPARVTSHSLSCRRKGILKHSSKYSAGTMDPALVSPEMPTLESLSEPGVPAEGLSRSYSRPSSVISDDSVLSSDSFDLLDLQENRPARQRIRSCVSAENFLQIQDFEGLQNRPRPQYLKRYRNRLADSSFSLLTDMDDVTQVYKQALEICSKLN
# LRRK2(G2019S), sequence (Q5S007 whole entry G2019S): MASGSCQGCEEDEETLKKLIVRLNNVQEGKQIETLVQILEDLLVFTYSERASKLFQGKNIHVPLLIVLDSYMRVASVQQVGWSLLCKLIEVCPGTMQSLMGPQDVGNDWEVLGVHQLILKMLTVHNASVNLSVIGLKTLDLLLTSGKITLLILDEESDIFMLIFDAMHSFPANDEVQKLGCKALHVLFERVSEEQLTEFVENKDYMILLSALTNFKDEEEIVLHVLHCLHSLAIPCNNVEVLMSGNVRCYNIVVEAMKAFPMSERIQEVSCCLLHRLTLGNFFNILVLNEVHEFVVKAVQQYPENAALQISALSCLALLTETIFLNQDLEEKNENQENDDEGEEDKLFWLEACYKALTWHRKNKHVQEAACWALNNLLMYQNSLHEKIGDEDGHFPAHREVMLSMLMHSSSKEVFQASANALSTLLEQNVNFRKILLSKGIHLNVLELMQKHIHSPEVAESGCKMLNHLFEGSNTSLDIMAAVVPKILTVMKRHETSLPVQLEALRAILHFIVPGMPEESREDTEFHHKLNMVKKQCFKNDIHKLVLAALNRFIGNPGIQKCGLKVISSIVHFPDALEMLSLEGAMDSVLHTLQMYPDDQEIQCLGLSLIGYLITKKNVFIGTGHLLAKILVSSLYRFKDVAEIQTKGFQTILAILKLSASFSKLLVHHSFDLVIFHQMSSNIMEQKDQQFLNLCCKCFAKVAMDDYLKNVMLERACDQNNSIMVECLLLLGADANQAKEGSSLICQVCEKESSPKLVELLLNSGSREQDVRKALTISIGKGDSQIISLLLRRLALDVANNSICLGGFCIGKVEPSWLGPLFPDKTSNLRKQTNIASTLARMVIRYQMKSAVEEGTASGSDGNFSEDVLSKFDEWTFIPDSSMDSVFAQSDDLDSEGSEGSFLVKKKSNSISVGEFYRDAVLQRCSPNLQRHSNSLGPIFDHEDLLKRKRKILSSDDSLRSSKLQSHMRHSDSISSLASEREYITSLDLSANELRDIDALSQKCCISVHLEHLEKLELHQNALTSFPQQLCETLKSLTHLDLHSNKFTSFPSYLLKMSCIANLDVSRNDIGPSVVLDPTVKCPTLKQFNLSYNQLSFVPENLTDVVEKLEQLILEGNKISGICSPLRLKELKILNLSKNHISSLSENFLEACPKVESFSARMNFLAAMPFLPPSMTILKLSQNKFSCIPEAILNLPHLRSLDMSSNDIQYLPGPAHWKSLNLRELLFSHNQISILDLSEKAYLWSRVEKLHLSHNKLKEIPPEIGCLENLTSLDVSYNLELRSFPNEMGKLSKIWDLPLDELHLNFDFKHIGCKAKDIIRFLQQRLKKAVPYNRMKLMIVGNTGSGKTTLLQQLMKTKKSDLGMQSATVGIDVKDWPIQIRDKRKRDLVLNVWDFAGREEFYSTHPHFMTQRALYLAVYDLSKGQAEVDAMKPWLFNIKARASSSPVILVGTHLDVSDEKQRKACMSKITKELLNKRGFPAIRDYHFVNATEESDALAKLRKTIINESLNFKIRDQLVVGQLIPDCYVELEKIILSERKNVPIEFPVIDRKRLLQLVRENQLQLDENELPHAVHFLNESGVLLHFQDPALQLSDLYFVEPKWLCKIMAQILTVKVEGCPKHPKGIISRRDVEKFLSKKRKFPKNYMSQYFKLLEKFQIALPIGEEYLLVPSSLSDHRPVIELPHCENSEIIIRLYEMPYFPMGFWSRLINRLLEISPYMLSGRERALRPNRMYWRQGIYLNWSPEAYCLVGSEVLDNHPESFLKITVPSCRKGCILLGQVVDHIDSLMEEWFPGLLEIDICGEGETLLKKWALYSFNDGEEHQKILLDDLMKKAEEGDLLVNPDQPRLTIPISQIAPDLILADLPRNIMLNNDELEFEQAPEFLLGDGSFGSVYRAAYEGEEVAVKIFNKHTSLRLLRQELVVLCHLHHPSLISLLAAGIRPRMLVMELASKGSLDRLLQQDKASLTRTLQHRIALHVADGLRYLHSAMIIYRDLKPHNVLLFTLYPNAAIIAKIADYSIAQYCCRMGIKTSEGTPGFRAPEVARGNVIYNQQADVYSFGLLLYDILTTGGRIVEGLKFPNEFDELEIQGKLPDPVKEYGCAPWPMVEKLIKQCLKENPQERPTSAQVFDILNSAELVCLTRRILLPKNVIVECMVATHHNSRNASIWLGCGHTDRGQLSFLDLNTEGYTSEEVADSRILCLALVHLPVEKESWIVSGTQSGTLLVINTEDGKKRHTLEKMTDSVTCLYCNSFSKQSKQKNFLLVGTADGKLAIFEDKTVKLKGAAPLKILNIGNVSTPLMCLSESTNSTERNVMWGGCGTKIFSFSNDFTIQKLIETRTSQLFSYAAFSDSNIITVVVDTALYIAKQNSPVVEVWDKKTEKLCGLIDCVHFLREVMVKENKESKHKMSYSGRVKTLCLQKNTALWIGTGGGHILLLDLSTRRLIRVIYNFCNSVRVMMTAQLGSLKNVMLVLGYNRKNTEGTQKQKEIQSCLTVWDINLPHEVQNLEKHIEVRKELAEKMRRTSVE
# T6 sequence (Q07002 whole entry): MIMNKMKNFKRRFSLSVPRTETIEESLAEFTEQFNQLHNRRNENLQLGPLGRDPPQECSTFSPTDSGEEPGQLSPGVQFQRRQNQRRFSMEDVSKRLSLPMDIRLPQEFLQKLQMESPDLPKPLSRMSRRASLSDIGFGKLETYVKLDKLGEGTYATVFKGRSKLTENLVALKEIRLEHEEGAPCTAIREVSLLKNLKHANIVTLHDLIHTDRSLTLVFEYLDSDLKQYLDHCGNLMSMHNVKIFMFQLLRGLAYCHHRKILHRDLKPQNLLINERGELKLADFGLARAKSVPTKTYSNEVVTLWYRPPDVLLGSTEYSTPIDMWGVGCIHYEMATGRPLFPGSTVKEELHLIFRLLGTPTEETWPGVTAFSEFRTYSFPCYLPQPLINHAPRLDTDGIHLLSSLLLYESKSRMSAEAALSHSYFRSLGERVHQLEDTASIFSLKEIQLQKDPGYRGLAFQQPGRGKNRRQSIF
SMILES,remaining binding at 10 µM [1] [%],remaining binding at 10 µM [2] [%],remaining binding at 10 µM [3] [%],remaining binding at 10 µM [4] [%],remaining binding at 10 µM [5] [%],remaining binding at 10 µM [6] [%],remaining binding at 10 µM [7] [%],remaining binding at 10 µM [8] [%],remaining binding at 10 µM [9] [%],remaining binding at 10 µM [10] [%],remaining binding at 10 µM [11] [%],remaining binding at 10 µM [12] [%],remaining binding at 10 µM [13] [%],remaining binding at 10 µM [14] [%],remaining binding at 10 µM [15] [%],remaining binding at 10 µM [16] [%],remaining binding at 10 µM [17] [%],remaining binding at 10 µM [18] [%],remaining binding at 10 µM [19] [%],remaining binding at 10 µM [20] [%],other results
"COc1ccc(-c2cnccc2-c2cnc(NC(=O)C(C)C)s2)c(C(F)(F)F)c1 [CRT0105446, N-{5-[3-(4-Methoxy-2-trifluoromethyl-phenyl)-pyridin-4-yl]-hiazol-2-yl}-isobutyramide]",100,100,100,100,59,88,1.2,83,40,94,98,100,89,86,100,87,100,100,100,7.7,remaining binding at 10 µM [21]: 100%; remaining binding at 10 µM [22]: 100%; remaining binding at 10 µM [23]: 90%
"Cc1ccc(-c2cnccc2-c2cnc(Nc3ccc(O)cc3)s2)c(Cl)c1 [CRT0105950, 4-{5-[3-(2-Chloro-4-methyl-phenyl)-pyridin-4-yl]-thiazol-2-ylamino}-phenol]",82,58,52,32,49,3.8,13,44,5.6,80,5,65,49,56,96,51,20,11,28,68,remaining binding at 10 µM [21]: 82%; remaining binding at 10 µM [22]: 79%; remaining binding at 10 µM [23]: 53%
